In patent publication US20250320202A1, “PRMT5 INHIBITOR, PREPARATION METHOD THEREFOR, AND PHARMACEUTICAL USE THEREOF” (Abbisko Therapeutics Co., Ltd., priority 2022, published 2025):
pIC50: −log10 of the molar value.

Assays:
[1] = system: HCT116 MTAP wild-type cells; experiment: Human colon cancer HCT116 cell proliferation inhibition test (CellTiter-Glo, 6 days), MTAP wild-type cells; type: cell-based; settings: HCT-116, 144 h
Description: (§1) 1. HCT116 MTAP knockout and MTAP wild-type cells were plated in 96-well flat bottom plates, and cultured overnight with McCoy's 5A medium containing 10% fetal bovine serum+1% penicillin-streptomycin at 37° C. and 5% CO2.
(§2) 2. On the next day, the compound was dissolved with DMSO, diluted with DMSO and medium successively and transferred to the cell plate. The final concentration of the compound was 10 μM, the compound was diluted 4 times, with 9 concentration gradients, and DMSO control was added.
(§3) 3. Cells that have not been treated with the compound were removed. CellTiter-Glo Luminescent Cell Viability Assay (Promega) was used to detect cell viability, the operation was performed with reference to the package insert of the kit, and then the cell plate was placed on EnVision Multilabel Reader to detect the cold light signal.
(§4) 4. Meanwhile, the cell plate treated with the compound was cultured at 37° C. and 5% CO2 for 6 consecutive days.
(§5) 5. Then, CellTiter-Glo was also used to detect cell viability.
(§6) 6. Finally, the four-parameter dose-response curve module of GraphPad Prism v 9.2.0 software was used to plot the dose-response curve and calculate the IC50 for proliferation inhibition (unit: nM).

[2] = system: HCT116 MTAP knockout cells; experiment: Human colon cancer HCT116 cell proliferation inhibition test (CellTiter-Glo, 6 days), MTAP knockout cells; type: cell-based; settings: HCT-116, 144 h
Description: as §1, §2, §3, §4, §5, §6

pIC50 [1] | pIC50 [2] | Structure (SMILES)
6.10 | 7.70 | Nc1nc2cc(F)c(C(=O)N(CC3CC3)[C@@H]3CCc4nc(C(F)(F)F)ccc43)cc2c2cnccc12 [Example 237, (R)-5-amino-N-(cyclopropylmethyl)-8-fluoro-N-(2-(trifluoromethyl)-6,7-dihydro-5H-cyclopenta[b]pyridin-5-yl)benzo[c][2,6]naphthyridin-9-carboxamide]
6.44 | 8.00 | Nc1nc2cc(Cl)c(C(=O)N(CC3CC3)[C@@H]3COc4nc(C(F)(F)F)ccc43)cc2c2cnccc12 [Example 232, (S)-5-amino-8-chloro-N-(cyclopropylmethyl)-N-(6-(trifluoromethyl)-2,3-dihydrofuro[2,3-b]pyridin-3-yl)benzo[c][2,6]naphthyridin-9-carboxamide]
7.15 | 8.52 | Nc1nc2cc(F)c(C(=O)N(c3cscn3)[C@@H]3CCc4cc(C(F)(F)F)ccc43)cc2c2c1COC2 [Example 213, (R)-4-amino-7-fluoro-N-(thiazol-4-yl)-N-(5-(trifluoromethyl)-2,3-dihydro-1H-inden-1-yl)-1,3-dihydrofuro[3,4-c]quinolin-8-carboxamide]
7.52 | 9.00 | Cn1cc(N(C(=O)c2cc3c(cc2F)nc(N)c2cnn(C)c23)[C@@H]2COc3nc(C(F)(F)F)ccc32)cn1 [Example 2, (S)-4-amino-7-fluoro-1-methyl-N-(1-methyl-1H-pyrazol-4-yl)-N-(6-(trifluoromethyl)-2,3-dihydrofuro[2,3-b]pyridin-3-yl)-1H-pyrazolo[4,3-c]quinolin-8-carboxamide]
6.15 | 8.10 | Cn1cc(N(C(=O)c2ccc3nc(N)c4ccncc4c3c2)C2COc3cc(C(F)(F)F)ccc32)cn1 (centres unmarked) [Example 133, 5-amino-N-(1-methyl-1H-pyrazol-4-yl)-N-(6-(trifluoromethyl)-2,3-dihydrobenzofuran-3-yl)benzo[c][2,6]naphthyridin-9-carboxamide]
6.16 | 7.27 | CCN(C(=O)c1cc2c(cc1F)nc(N)c1cnn(C)c12)C1CCc2cc(C(F)(F)F)ccc21 (centres unmarked) [Reference Compound 1, reference compound]
6.08 | 7.82 | Nc1nc2ccc(C(=O)N(CC3CC3)C3COc4cc(C(F)(F)F)ccc43)cc2c2cnccc12 (centres unmarked) [Example 109, 5-amino-N-(cyclopropylmethyl)-N-(6-(trifluoromethyl)-2,3-dihydrobenzofuran-3-yl)benzo[c][2,6]naphthyridin-9-carboxamide]
6.53 | 8.22 | Nc1nc2ccc(C(=O)N(c3cnsc3)[C@@H]3CCc4cc(C(F)(F)F)ccc43)cc2c2cnccc12 [Example 204, (R)-5-amino-N-(isothiazol-4-yl)-N-(5-(trifluoromethyl)-2,3-dihydro-1H-inden-1-yl)benzo[c][2,6]naphthyridin-9-carboxamide]
5.04 | 6.34 | Nc1nc2ccc(C(=O)N(CC3CC3)[C@H]3COc4cc(C(F)(F)F)ccc43)cc2c2cnccc12 [Example 193, (R)-5-amino-N-(cyclopropylmethyl)-N-(6-(trifluoromethyl)-2,3-dihydrobenzofuran-3-yl)benzo[c][2,6]naphthyridin-9-carboxamide]
6.47 | 7.77 | Cn1cc(N(C(=O)c2cc3c4c(c(N)nc3cc2F)COC4)C2CCc3nc(C(F)(F)F)ccc32)cn1 (centres unmarked) [Example 160, 4-amino-7-fluoro-N-(1-methyl-1H-pyrazol-4-yl)-N-(2-(trifluoromethyl)-6,7-dihydro-5H-cyclopenta[b]pyridin-5-yl)-1,3-dihydrofuro[3,4-c]quinolin-8-carboxamide]
7.44 | 8.70 | C[C@H]1OCc2c1c(N)nc1cc(F)c(C(=O)N(c3cnn(C)c3)[C@@H]3COc4cc(C(F)(F)F)ccc43)cc21 [Example 202, (R)-4-amino-7-fluoro-3-methyl-N-(1-methyl-1H-pyrazol-4-yl)-N-((S)-6-(trifluoromethyl)-2,3-dihydrobenzofuran-3-yl)-1,3-dihydrofuro[3,4-c]quinolin-8-carboxamide]
5.97 | 7.07 | CN(C(=O)c1ccc2nc(N)c3ccncc3c2c1)[C@@H]1CCc2cc(C(F)(F)F)ccc21 [Example 227, (R)-5-amino-N-methyl-N-(5-(trifluoromethyl)-2,3-dihydro-1H-inden-1-yl)benzo[c][2,6]naphthyridin-9-carboxamide]
6.56 | 9.52 | Cn1ccc(N(C(=O)c2cc3c(cc2F)nc(N)c2cnn(C)c23)C2CCc3cc(C(F)(F)F)ccc32)n1 (centres unmarked) [Example 168, 4-amino-7-fluoro-1-methyl-N-(1-methyl-1H-pyrazol-3-yl)-N-(5-(trifluoromethyl)-2,3-dihydro-1H-inden-1-yl)-1H-pyrazolo[4,3-c]quinolin-8-carboxamide]
< 5.00 | 6.30 | Cn1ncc2c(N)nc3cc(F)c(C(=O)N(CC(F)(F)F)[C@H]4COc5cc(C(F)(F)F)ccc54)cc3c21 [Example 186, (R)-4-amino-7-fluoro-1-methyl-N-(2,2,2-trifluoroethyl)-N-(6-(trifluoromethyl)-2,3-dihydrobenzofuran-3-yl)-1H-pyrazolo[4,3-c]quinolin-8-carboxamide]
5.90 | 7.55 | Cn1ncc2c(N)nc3cc(F)c(C(=O)N(CC(F)(F)F)[C@@H]4COc5cc(C(F)(F)F)ccc54)cc3c21 [Example 185, (S)-4-amino-7-fluoro-1-methyl-N-(2,2,2-trifluoroethyl)-N-(6-(trifluoromethyl)-2,3-dihydrobenzofuran-3-yl)-1H-pyrazolo[4,3-c]quinolin-8-carboxamide]
5.71 | 7.36 | Cn1cc(N(C(=O)c2ccc3nc(N)c4ccncc4c3c2)C2CCc3cc(C(F)(F)F)ccc32)cn1 (centres unmarked) [Example 132, 5-amino-N-(1-methyl-1H-pyrazol-4-yl)-N-(5-(trifluoromethyl)-2,3-dihydro-1H-inden-1-yl)benzo[c][2,6]naphthyridin-9-carboxamide]
6.56 | 8.05 | Cn1cc(N(Cc2ccc(C(F)(F)F)cn2)C(=O)c2cc3c(cc2F)nc(N)c2cnn(C)c23)cn1 [compound 3, reference compound]
6.89 | 8.40 | C[C@H]1OCc2c1c(N)nc1cc(F)c(C(=O)N(c3cnn(C)c3)[C@@H]3COc4nc(C(F)(F)F)ccc43)cc21 [Example 208, (R)-4-amino-7-fluoro-3-methyl-N-(1-methyl-1H-pyrazol-4-yl)-N-((S)-6-(trifluoromethyl)-2,3-dihydrofuro[2,3-b]pyridin-3-yl)-1,3-dihydrofuro[3,4-c]quinolin-8-carboxamide]
5.02 | 6.54 | Nc1nc2ccc(C(=O)N(C3CC3)C3CCc4nc(C(F)(F)F)ccc43)cc2c2cnccc12 (centres unmarked) [Example 225, 5-amino-N-cyclopropyl-N-(2-(trifluoromethyl)-6,7-dihydro-5H-cyclopenta[b]pyridin-5-yl)benzo[c][2,6]naphthyridin-9-carboxamide]
6.98 | 8.05 | Cn1ncc2c(N)nc3cc(F)c(C(=O)N(c4cnsc4)[C@@H]4CCc5cc(C(F)(F)F)ccc54)cc3c21 [Example 203, (R)-4-amino-7-fluoro-N-(isothiazol-4-yl)-1-methyl-N-(5-(trifluoromethyl)-2,3-dihydro-1H-inden-1-yl)-1H-pyrazolo[4,3-c]quinolin-8-carboxamide]
5.07 | 7.09 | Cn1cc(N(C(=O)c2cc3c(cc2F)nc(N)c2cnn(C)c23)[C@H]2COc3cc(C(F)(F)F)ccc32)cn1 [Example 206, (R)-4-amino-7-fluoro-1-methyl-N-(1-methyl-1H-pyrazol-4-yl)-N-(6-(trifluoromethyl)-2,3-dihydrobenzofuran-3-yl)-1H-pyrazolo[4,3-c]quinolin-8-carboxamide]
5.71 | 7.30 | Cn1cc(N(C(=O)c2ccc3nc(N)c4ccncc4c3c2)[C@@H]2CCc3cc(C(F)(F)F)ccc32)cn1 [Example 226, (R)-5-amino-N-(1-methyl-1H-pyrazol-4-yl)-N-(5-(trifluoromethyl)-2,3-dihydro-1H-inden-1-yl)benzo[c][2,6]naphthyridin-9-carboxamide]
6.55 | 8.40 | Cn1cc(N(C(=O)c2cc3c4c(c(N)nc3cc2F)COC4)[C@@H]2COc3nc(C(F)(F)F)ccc32)cn1 [Example 209, (S)-4-amino-7-fluoro-N-(1-methyl-1H-pyrazol-4-yl)-N-(6-(trifluoromethyl)-2,3-dihydrofuro[2,3-b]pyridin-3-yl)-1,3-dihydrofuro[3,4-c]quinolin-8-carboxamide]
5.13 | 7.20 | Nc1nc2ccc(C(=O)N(c3ncccn3)C3CCc4cc(C(F)(F)F)ccc43)cc2c2cnccc12 (centres unmarked) [Example 210, 5-amino-N-(pyrimidin-2-yl)-N-(5-(trifluoromethyl)-2,3-dihydro-1H-inden-1-yl)benzo[c][2,6]naphthyridin-9-carboxamide]
5.60 | 7.46 | Cn1cc(N(C(=O)c2ccc3nc(N)c4c(cnn4C)c3c2)C2COc3cc(C(F)(F)F)ccc32)cn1 (centres unmarked) [Example 165, 4-amino-3-methyl-N-(1-methyl-1H-pyrazol-4-yl)-N-(6-(trifluoromethyl)-2,3-dihydrobenzofuran-3-yl)-3H-pyrazolo[3,4-c]quinolin-8-carboxamide]
